Results published in the OligoGym collection.
After the bases stand the sugars from the 5' end (letter, count) and the backbone: PS all phosphorothioate, else s phosphorothioate and o phosphodiester by linkage. Methylation of C is not given here. e = 2'-O-(2-methoxyethyl) (MOE); k = constrained ethyl (cEt); d = 2'-deoxy (DNA); m = 2'-O-methyl

Target: HSD17B13
Conditions: ASO, HepaRG

For “TCTAAGTTAGCCCCCA (sugars k3 d9 k3 e1, PS)”, the target mRNA inhibition (1 µM) was 0%.

With TCTAAGTTAGCCCCCA (sugars k3 d10 k3, PS) the target mRNA inhibition (1 µM) was 36%.

Sequence TCTACAAAACTGGTAT (sugars k3 d10 k3, PS) has a target mRNA inhibition (1 µM) of 9%.

TCTACATGGATCCAAC (sugars k3 d10 k3, PS) showed a target mRNA inhibition (1 µM) of 26%.

Sequence TCTAGAATTAAGGGCT (sugars k3 d10 k3, PS) has a target mRNA inhibition (1 µM) of 45%.

TCTAGGAGATATAACA (sugars k3 d10 k3, PS) was tested, and the target mRNA inhibition (1 µM) was 48%.

TCTATACAAAGGCAGT (sugars k3 d10 k3, PS) showed a target mRNA inhibition (1 µM) of 53%.

For TCTCAGAGTTCAGGCA (sugars k3 d10 k3, PS), the target mRNA inhibition (1 µM) was 54%.

With TCTCCAATACAGGCCA (sugars k3 d10 k3, PS) the target mRNA inhibition (1 µM) was 21%.

For TCTCTAAAGCAGGCTA (sugars k3 d10 k3, PS), the target mRNA inhibition (1 µM) was 60%.

TCTCTCCATCATCGAT (sugars k3 d10 k3, PS) was tested, and the target mRNA inhibition (1 µM) was 24%.

“TCTCTTAGCTGTGCAC (sugars k3 d9 k3 e1, PS)” showed a target mRNA inhibition (1 µM) of 69%.

“TCTCTTAGCTGTGCAC (sugars kkdddddddddkekek, PS)” showed a target mRNA inhibition (1 µM) of 36%.

With “TCTCTTGACAATGGTT (sugars k3 d9 k3 e1, PS)” the target mRNA inhibition (0.02 µM) was 0%, the target mRNA inhibition (0.078 µM) was 23% and the target mRNA inhibition (0.313 µM) was 47%. The target mRNA inhibition (1 µM) was 84%, the target mRNA inhibition (1.25 µM) was 66% and the target mRNA inhibition (5 µM) was 79%.

With TCTCTTGGGTCCATTG (sugars k3 d10 k3, PS) the target mRNA inhibition (1 µM) was 63%.

TCTGTATAGCTGCATT (sugars k3 d10 k3, PS) was tested, and the target mRNA inhibition (1 µM) was 47%.

For TCTGTCTCCAATACAG (sugars k3 d10 k3, PS), the target mRNA inhibition (1 µM) was 13%.

With “TCTTAAGATACCCAGG (sugars k3 d9 k3 e1, PS)” the target mRNA inhibition (1 µM) was 48%.

For TCTTAGCTGTGCACTC (sugars k3 d10 k3, PS), the target mRNA inhibition (1 µM) was 69%.

Work on TCTTATAAGACTATAA (sugars k3 d10 k3, PS) yielded a target mRNA inhibition (1 µM) of 17%.

For TCTTATCCACACCTTC (sugars k3 d10 k3, PS), the target mRNA inhibition (1 µM) was 31%.

In the case of TCTTATCTTGGGCACC (sugars k3 d10 k3, PS), the target mRNA inhibition (1 µM) is reported as 44%.

Work on TCTTCACCTGATTTAG (sugars k3 d10 k3, PS) yielded a target mRNA inhibition (1 µM) of 24%.

With “TCTTGACAATGGTTGA (sugars k3 d9 k3 e1, PS)” the target mRNA inhibition (1 µM) was 61%.

With TGAAATTGATACACCA (sugars k3 d10 k3, PS) the target mRNA inhibition (1 µM) was 58%.

With “TGAACAGTCTTAAACC (sugars k3 d9 k3 e1, PS)” the target mRNA inhibition (1 µM) was 61%.

In the case of “TGAACAGTCTTAAACC (sugars kkdddddddddkekek, PS)”, the target mRNA inhibition (1 µM) is reported as 34%.

Work on TGAACATACATTGTTG (sugars k3 d10 k3, PS) yielded a target mRNA inhibition (1 µM) of 29%.

In the case of TGAAGATTAGTTAACC (sugars k3 d10 k3, PS), the target mRNA inhibition (1 µM) is reported as 21%.

Sequence TGAATCATGATTGAAT (sugars k3 d10 k3, PS) has a target mRNA inhibition (1 µM) of 38%.

Sequence “TGACAATGGTTGATAG (sugars k3 d9 k3 e1, PS)” has a target mRNA inhibition (1 µM) of 38%.

TGACAATGTGCAGCTC (sugars k3 d10 k3, PS) was tested, and the target mRNA inhibition (1 µM) was 64%.

TGACATAACTACTTCA (sugars k3 d10 k3, PS) gave a target mRNA inhibition (1 µM) of 22%.

TGACTAAGGAGCTAGA (sugars k3 d10 k3, PS) gave a target mRNA inhibition (1 µM) of 31%.

In the case of TGACTAATGCAAGATT (sugars k3 d10 k3, PS), the target mRNA inhibition (1 µM) is reported as 45%.

TGAGAAGGCGGTATCA (sugars k3 d10 k3, PS) was tested, and the target mRNA inhibition (1 µM) was 20%.

With TGAGAATTTAAGAGGG (sugars k3 d10 k3, PS) the target mRNA inhibition (1 µM) was 25%.

In the case of TGAGATAAAGCTGCCT (sugars k3 d10 k3, PS), the target mRNA inhibition (1 µM) is reported as 63%.

In the case of TGAGATGGGCAAGGCC (sugars k3 d10 k3, PS), the target mRNA inhibition (1 µM) is reported as 53%.

Sequence TGAGTTACATTACAGC (sugars k3 d10 k3, PS) has a target mRNA inhibition (0.02 µM) of 16%, a target mRNA inhibition (0.078 µM) of 34% and a target mRNA inhibition (0.313 µM) of 72%. For the same sequence, the target mRNA inhibition (1 µM) was 90%, the target mRNA inhibition (1.25 µM) was 86% and the target mRNA inhibition (5 µM) was 89%.

Sequence “TGATACACCAATGCAG (sugars k3 d1 m1 d8 k3, PS)” has a target mRNA inhibition (1 µM) of 38%.

Work on “TGATACACCAATGCAG (sugars k3 d9 k3 e1, PS)” yielded a target mRNA inhibition (1 µM) of 58%.

“TGATACACCAATGCAG (sugars kkdddddddddkekek, PS)” was tested, and the target mRNA inhibition (1 µM) was 62%.

“TGATATTCTGTGGCAT (sugars k3 d9 k3 e1, PS)” gave a target mRNA inhibition (0.02 µM) of 8%, a target mRNA inhibition (0.078 µM) of 23% and a target mRNA inhibition (0.313 µM) of 40%. It also gave a target mRNA inhibition (1 µM) of 74%, a target mRNA inhibition (1.25 µM) of 67% and a target mRNA inhibition (5 µM) of 90%.

Sequence TGATCTTAAGGATCAT (sugars k3 d10 k3, PS) has a target mRNA inhibition (1 µM) of 0%.

Work on TGATTAAGCAGAATTG (sugars k3 d10 k3, PS) yielded a target mRNA inhibition (1 µM) of 57%.

Sequence TGATTAATCTTGATGC (sugars k3 d10 k3, PS) has a target mRNA inhibition (1 µM) of 15%.

TGATTTAGTTGGTAGC (sugars k3 d10 k3, PS) showed a target mRNA inhibition (0.02 µM) of 7%, a target mRNA inhibition (0.078 µM) of 43% and a target mRNA inhibition (0.313 µM) of 73%. It also gave a target mRNA inhibition (1 µM) of 79%, a target mRNA inhibition (1.25 µM) of 84% and a target mRNA inhibition (5 µM) of 94%.

TGCAAAATGTGATGCC (sugars k3 d10 k3, PS) showed a target mRNA inhibition (1 µM) of 69%.

For TGCAATAGTACTATAG (sugars k3 d10 k3, PS), the target mRNA inhibition (1 µM) was 24%.

In the case of TGCAGAAATTCACCTT (sugars k3 d10 k3, PS), the target mRNA inhibition (1 µM) is reported as 54%.

Work on “TGCAGCATTGATTCGA (sugars k3 d1 m1 d8 k3, PS)” yielded a target mRNA inhibition (1 µM) of 65%.

For TGCAGCATTGATTCGA (sugars k3 d10 k3, PS), the target mRNA inhibition (1 µM) was 47%.

Work on “TGCAGCATTGATTCGA (sugars kkdddddddddkekek, PS)” yielded a target mRNA inhibition (1 µM) of 42%.

With TGCAGTTATTAGAAGT (sugars k3 d10 k3, PS) the target mRNA inhibition (1 µM) was 46%.

Work on “TGCATCTTAAGATACC (sugars kkdddddddddkekek, PS)” yielded a target mRNA inhibition (1 µM) of 24%.

TGCCTGCCTATTCCAT (sugars k3 d10 k3, PS) gave a target mRNA inhibition (1 µM) of 40%.

TGCTACTCTAGGAGAT (sugars k3 d10 k3, PS) was tested, and the target mRNA inhibition (1 µM) was 60%.

With “TGCTACTTGAACAGTC (sugars k3 d1 m1 d8 k3, PS)” the target mRNA inhibition (1 µM) was 65%.

Sequence TGCTACTTGAACAGTC (sugars k3 d10 k3, PS) has a target mRNA inhibition (0.02 µM) of 3%, a target mRNA inhibition (0.078 µM) of 22% and a target mRNA inhibition (0.313 µM) of 49%. For the same sequence, the target mRNA inhibition (1 µM) was 81%, the target mRNA inhibition (1.25 µM) was 78% and the target mRNA inhibition (5 µM) was 89%.

In the case of “TGCTACTTGAACAGTC (sugars kkdddddddddkekek, PS)”, the target mRNA inhibition (1 µM) is reported as 64%.

In the case of “TGCTAGTGCCAAACCA (sugars kkdddddddddkekek, PS)”, the target mRNA inhibition (1 µM) is reported as 58%.

With TGCTATAGTAATCACA (sugars k3 d10 k3, PS) the target mRNA inhibition (1 µM) was 65%.

Sequence “TGCTGCATTAATGCCA (sugars k3 d9 k3 e1, PS)” has a target mRNA inhibition (1 µM) of 6%.

Sequence “TGCTGCATTAATGCCA (sugars kkdddddddddkekek, PS)” has a target mRNA inhibition (1 µM) of 30%.

TGCTGCTAGTGCCAAA (sugars k3 d10 k3, PS) was tested, and the target mRNA inhibition (1 µM) was 58%.

In the case of TGGAACAATATGGGAT (sugars k3 d10 k3, PS), the target mRNA inhibition (1 µM) is reported as 46%.

TGGAATGCTACTTGAA (sugars k3 d10 k3, PS) was tested, and the target mRNA inhibition (0.02 µM) was 0%, the target mRNA inhibition (0.078 µM) was 22% and the target mRNA inhibition (0.313 µM) was 55%. For the same sequence, the target mRNA inhibition (1 µM) was 85%, the target mRNA inhibition (1.25 µM) was 71% and the target mRNA inhibition (5 µM) was 90%.

For TGGATATACTGTCCCA (sugars k3 d10 k3, PS), the target mRNA inhibition (1 µM) was 24%.
